# Test results reported in ChEMBL document CHEMBL3044598, “Study of inhibitory effects and action mechanism of the novel fungicide pyrimorph against Phytophthora capsici” (J Agric Food Chem, 2010).
# Calls of active or inactive are those of the source. No cut-off for these calls is given here.
# Legend:
# Phytophthora capsici [1] = assay: Inhibition of intact mycelial respiration of Phytophthora capsici assessed as superpose rate of oxygen consumption at 100 ug/mL in presence of sodium phosphate; assay type: functional; set-up: scale not given: the % may be the effect or the level left
# Phytophthora capsici [2] = assay: Inhibition of intact mycelial respiration of Phytophthora capsici assessed as superpose rate of oxygen consumption at 100 ug/mL in presence of iodoacetic acid; assay type: functional; set-up: scale not given: the % may be the effect or the level left
# Phytophthora capsici [3] = assay: Inhibition of intact mycelial respiration of Phytophthora capsici assessed as superpose rate of oxygen consumption at 100 ug/mL in presence of malonic acid; assay type: functional; set-up: scale not given: the % may be the effect or the level left
# Phytophthora capsici [4] = assay: Inhibition of intact mycelial respiration of Phytophthora capsici at 100 ug/mL in presence of sodium phosphate; assay type: functional
# Phytophthora capsici [5] = assay: Inhibition of intact mycelial respiration of Phytophthora capsici at 100 ug/mL in presence of iodoacetic acid; assay type: functional
# Phytophthora capsici [6] = assay: Inhibition of intact mycelial respiration of Phytophthora capsici at 100 ug/mL in presence of malonic acid; assay type: functional
# Phytophthora capsici [7] = assay: Inhibition of intact mycelial respiration of Phytophthora capsici at 100 ug/mL; assay type: functional
# Phytophthora capsici [8] = assay: Inhibition of sporangia formation of Phytophthora capsici treated 240 min after sporangia incubation followed by compound exposure for 60 min by light microscopy; assay type: functional, organism-based
# Phytophthora capsici [9] = assay: Inhibition of cytospore germination of Phytophthora capsici at 2 ug/mL after 24 hr; assay type: functional
# Phytophthora capsici [10] = assay: Inhibition of cytospore germination of Phytophthora capsici at 1 ug/mL after 24 hr; assay type: functional
# Phytophthora capsici [11] = assay: Inhibition of cytospore germination of Phytophthora capsici at 0.2 ug/mL after 24 hr; assay type: functional
# Phytophthora capsici [12] = assay: Inhibition of cytospore germination of Phytophthora capsici at 0.5 ug/mL after 24 hr; assay type: functional
# Phytophthora capsici [13] = assay: Inhibition of cytospore germination of Phytophthora capsici at 0.1 ug/mL after 24 hr; assay type: functional
# Phytophthora capsici [14] = assay: Inhibition of sporangia formation of Phytophthora capsici at 2 ug/mL treated 240 min after sporangia incubation followed by compound exposure for 60 min by light microscopy; assay type: functional
# Phytophthora capsici [15] = assay: Inhibition of sporangia formation of Phytophthora capsici at 1 ug/mL treated 240 min after sporangia incubation followed by compound exposure for 60 min by light microscopy; assay type: functional
# Phytophthora capsici [16] = assay: Inhibition of sporangia formation of Phytophthora capsici at 0.5 ug/mL treated 240 min after sporangia incubation followed by compound exposure for 60 min by light microscopy; assay type: functional
# Phytophthora capsici [17] = assay: Inhibition of sporangia formation of Phytophthora capsici at 0.2 ug/mL treated 240 min after sporangia incubation followed by compound exposure for 60 min by light microscopy; assay type: functional
# Phytophthora capsici [18] = assay: Inhibition of sporangia formation of Phytophthora capsici at 0.1 ug/mL treated 240 min after sporangia incubation followed by compound exposure for 60 min by light microscopy; assay type: functional
# Phytophthora capsici [19] = assay: Inhibition of mycelial radial growth of Phytophthora capsici incubated at 25 degC for 5 days; assay type: functional, organism-based; conditions: 120 h
# Phytophthora capsici [20] = assay: Inhibition of mycelial radial growth of Phytophthora capsici at 5 ug/mL incubated at 25 degC for 5 days in presence of 5 ug/mL ATP; assay type: functional; conditions: 120 h
# Phytophthora capsici [21] = assay: Inhibition of mycelial radial growth of Phytophthora capsici at 5 ug/mL incubated at 25 degC for 5 days in presence of 1 ug/mL ATP; assay type: functional
# Phytophthora capsici [22] = assay: Inhibition of mycelial radial growth of Phytophthora capsici at 10 ug/mL incubated at 25 degC for 5 days in absence of 5 ug/mL ATP; assay type: functional
# Phytophthora capsici [23] = assay: Inhibition of mycelial radial growth of Phytophthora capsici at 10 ug/mL incubated at 25 degC for 5 days in presence of 5 ug/mL ATP; assay type: functional
# Phytophthora capsici [24] = assay: Inhibition of mycelial radial growth of Phytophthora capsici at 10 ug/mL incubated at 25 degC for 5 days in presence of 1 ug/mL ATP; assay type: functional
# Phytophthora capsici [25] = assay: Inhibition of mycelial radial growth of Phytophthora capsici at 5 ug/mL incubated at 25 degC for 5 days; assay type: functional; conditions: 120 h
# Phytophthora capsici [26] = assay: Inhibition of mycelial radial growth of Phytophthora capsici at 2 ug/mL incubated at 25 degC for 5 days; assay type: functional; conditions: 120 h
# Phytophthora capsici [27] = assay: Induction of morphological changes in Phytophthora capsici assessed as distortion of vacuoles and vesicles in dense bodies at 10 ug/mL by transmission electron microscopy; assay type: functional, organism-based
# Phytophthora capsici [28] = assay: Induction of morphological changes in Phytophthora capsici assessed as increase in dense bodies at 10 ug/mL by transmission electron microscopy; assay type: functional, organism-based
# Phytophthora capsici [29] = assay: Induction of morphological changes in Phytophthora capsici assessed as induction of distortion of cell wall at 10 ug/mL by transmission electron microscopy; assay type: functional, organism-based
# Phytophthora capsici [30] = assay: Induction of morphological changes in Phytophthora capsici assessed as induction of multilayered cell wall development at 10 ug/mL by transmission electron microscopy; assay type: functional, organism-based
# Phytophthora capsici [31] = assay: Induction of morphological changes in Phytophthora capsici assessed as reduction in number of vesicles at 5 ug/mL by transmission electron microscopy; assay type: functional, organism-based
# Phytophthora capsici [32] = assay: Inhibition of mycelial radial growth of Phytophthora capsici at 1 ug/mL incubated at 25 degC for 5 days; assay type: functional; conditions: 120 h
# Phytophthora capsici [33] = assay: Inhibition of mycelial radial growth of Phytophthora capsici at 0.6 ug/mL incubated at 25 degC for 5 days; assay type: functional; conditions: 120 h
# Phytophthora capsici [34] = assay: Induction of morphological changes in Phytophthora capsici assessed as increase in extensive cell wall proliferation at 5 ug/mL by transmission electron microscopy; assay type: functional, organism-based
# Phytophthora capsici [35] = assay: Induction of morphological changes in Phytophthora capsici assessed as increase in abnormal mycelial configurations at 10 ug/mL by scanning electron microscopy; assay type: functional, organism-based
# Phytophthora capsici [36] = assay: Induction of morphological changes in Phytophthora capsici assessed as increase in mycelial ramifications at 10 ug/mL by scanning electron microscopy; assay type: functional, organism-based
# Phytophthora capsici [37] = assay: Induction of morphological changes in Phytophthora capsici assessed as increase in mycelial colony density at 10 ug/mL by scanning electron microscopy; assay type: functional, organism-based
# Phytophthora capsici [38] = assay: Induction of morphological changes in Phytophthora capsici assessed as abnormal mycelial growth at 10 ug/mL by scanning electron microscopy; assay type: functional, organism-based
# Phytophthora capsici [39] = assay: Induction of morphological changes in Phytophthora capsici assessed as increase in mycelial colony density at 5 ug/mL by scanning electron microscopy; assay type: functional, organism-based
# Phytophthora capsici [40] = assay: Induction of morphological changes in Phytophthora capsici assessed as abnormal mycelial growth at 5 ug/mL by scanning electron microscopy; assay type: functional, organism-based
# Phytophthora capsici [41] = assay: Inhibition of zoospore release of Phytophthora capsici at 100 ug/mL; assay type: functional
# Phytophthora capsici [42] = assay: Inhibition of zoospore release of Phytophthora capsici at 50 ug/mL; assay type: functional
# Phytophthora capsici [43] = assay: Inhibition of zoospore release of Phytophthora capsici at 25 ug/mL; assay type: functional
# Phytophthora capsici [44] = assay: Inhibition of zoospore release of Phytophthora capsici at 6 ug/mL; assay type: functional
# Phytophthora capsici [45] = assay: Inhibition of zoospore release of Phytophthora capsici at 12 ug/mL; assay type: functional
# Phytophthora capsici [46] = assay: Inhibition of zoospore release of Phytophthora capsici; assay type: functional, organism-based
# Phytophthora capsici [47] = assay: Inhibition of cytospore germination of Phytophthora capsici after 24 hr; assay type: functional, organism-based
structure (smiles),measurement,setting,value
COc1ccc(C(=CC(=O)N2CCOCC2)c2ccc(Cl)cc2)cc1OC [DIMETHOMORPH],Activity,Phytophthora capsici [1],44.06%
same,Activity,Phytophthora capsici [2],51.62%
same,Activity,Phytophthora capsici [3],49.91%
same,inhibition at 100 µg/mL,Phytophthora capsici [4],55%
same,inhibition at 100 µg/mL,Phytophthora capsici [5],61.1%
same,inhibition at 100 µg/mL,Phytophthora capsici [6],59.6%
same,inhibition at 100 µg/mL,Phytophthora capsici [7],19.4%
CC(C)(C)c1ccc(/C(=C/C(=O)N2CCOCC2)c2ccnc(Cl)c2)cc1 [PYRIMORPH],EC50,Phytophthora capsici [8],0.17 µg/mL
same,EC90,Phytophthora capsici [8],3.21 µg/mL
same,inhibition at 2 µg/mL,Phytophthora capsici [9],84%
same,inhibition at 1 µg/mL,Phytophthora capsici [10],71%
same,inhibition at 0.2 µg/mL,Phytophthora capsici [11],56%
same,inhibition at 0.5 µg/mL,Phytophthora capsici [12],68%
same,inhibition at 0.1 µg/mL,Phytophthora capsici [13],54%
same,inhibition at 2 µg/mL,Phytophthora capsici [14],85%
same,inhibition at 1 µg/mL,Phytophthora capsici [15],75%
same,inhibition at 0.5 µg/mL,Phytophthora capsici [16],66%
same,inhibition at 0.2 µg/mL,Phytophthora capsici [17],57%
same,inhibition at 0.1 µg/mL,Phytophthora capsici [18],52%
same,EC50,Phytophthora capsici [19],1.84 µg/mL
same,EC90,Phytophthora capsici [19],5.71 µg/mL
same,inhibition at 5 µg/mL,Phytophthora capsici [20],72%
same,inhibition (INH),Phytophthora capsici [21],75%
same,inhibition (INH),Phytophthora capsici [22],98%
same,inhibition (INH),Phytophthora capsici [23],77%
same,inhibition (INH),Phytophthora capsici [24],78.1%
same,inhibition at 5 µg/mL,Phytophthora capsici [25],81%
same,inhibition at 2 µg/mL,Phytophthora capsici [26],57%
same,Activity,Phytophthora capsici [27],Active
same,Activity,Phytophthora capsici [28],Active
same,Activity,Phytophthora capsici [29],Active
same,Activity,Phytophthora capsici [30],Active
same,Activity,Phytophthora capsici [31],Active
same,inhibition at 1 µg/mL,Phytophthora capsici [32],28%
same,inhibition at 0.6 µg/mL,Phytophthora capsici [33],9%
same,Activity,Phytophthora capsici [34],Active
same,Activity,Phytophthora capsici [35],Active
same,Activity,Phytophthora capsici [36],Active
same,Activity,Phytophthora capsici [37],Active
same,Activity,Phytophthora capsici [38],Active
same,Activity,Phytophthora capsici [39],Active
same,Activity,Phytophthora capsici [40],Active
same,Activity,Phytophthora capsici [1],5.22%
same,Activity,Phytophthora capsici [2],32.61%
same,Activity,Phytophthora capsici [3],18.31%
same,inhibition at 100 µg/mL,Phytophthora capsici [4],44%
same,inhibition at 100 µg/mL,Phytophthora capsici [5],60.2%
same,inhibition at 100 µg/mL,Phytophthora capsici [6],51.8%
same,inhibition at 100 µg/mL,Phytophthora capsici [7],41%
same,inhibition at 100 µg/mL,Phytophthora capsici [41],95%
same,inhibition at 50 µg/mL,Phytophthora capsici [42],94%
same,inhibition at 25 µg/mL,Phytophthora capsici [43],80%
same,inhibition at 6 µg/mL,Phytophthora capsici [44],58%
same,inhibition at 12 µg/mL,Phytophthora capsici [45],65%
same,EC50,Phytophthora capsici [46],4.92 µg/mL
same,EC90,Phytophthora capsici [46],45.7 µg/mL
same,EC50,Phytophthora capsici [47],0.09 µg/mL
same,EC90,Phytophthora capsici [47],8.16 µg/mL
